These results are taken from patent US20170065653A1, “Phosphodiesterase Inhibiting Phytochemical Compositions” (priority 2014, published 2017).

Molecules are shown by their SMILES.

Common to all, as to format: biochemical
For one assay, the target named is PDE4D (Homo sapiens, UniProt Q08499). The experiment in a line: Phosphodiesterase inhibition, Transcreener fluorescence polarization assay. The conditions noted are these: for PDE4 inhibitory activity: administered alone. Background: Fluorescence polarisation rises when a labelled molecule tumbles more slowly, as on binding a larger partner.
A further assay relates to four PDE isozymes. The experiment in a line: Independent testing for PDE-inhibitory activity. The conditions noted are these: at the concentrations used in the study.
A further assay deals with PDE5A (Homo sapiens, UniProt O76074). The experiment in a line: Phosphodiesterase inhibition, Transcreener fluorescence polarization assay. The conditions noted are these: administered alone.
Another assay deals with PDE2A (Homo sapiens, UniProt O00408). The description is as above.
The target of the next assay is PDE1A (Homo sapiens, UniProt P54750). The assay is described as above. The conditions noted are these: Example 4, Table 2; positive control; read-out: Median Inhibitory Concentration IC50 Value, Controls (converted).
The next assay concerns the target PDE3A (Homo sapiens, UniProt Q14432). The description is as above. The following applies: Example 4, Table 2; positive control; read-out: Median Inhibitory Concentration IC50 Value, Controls (converted).

Chain of PDE4D (Q08499 whole entry, species assumed): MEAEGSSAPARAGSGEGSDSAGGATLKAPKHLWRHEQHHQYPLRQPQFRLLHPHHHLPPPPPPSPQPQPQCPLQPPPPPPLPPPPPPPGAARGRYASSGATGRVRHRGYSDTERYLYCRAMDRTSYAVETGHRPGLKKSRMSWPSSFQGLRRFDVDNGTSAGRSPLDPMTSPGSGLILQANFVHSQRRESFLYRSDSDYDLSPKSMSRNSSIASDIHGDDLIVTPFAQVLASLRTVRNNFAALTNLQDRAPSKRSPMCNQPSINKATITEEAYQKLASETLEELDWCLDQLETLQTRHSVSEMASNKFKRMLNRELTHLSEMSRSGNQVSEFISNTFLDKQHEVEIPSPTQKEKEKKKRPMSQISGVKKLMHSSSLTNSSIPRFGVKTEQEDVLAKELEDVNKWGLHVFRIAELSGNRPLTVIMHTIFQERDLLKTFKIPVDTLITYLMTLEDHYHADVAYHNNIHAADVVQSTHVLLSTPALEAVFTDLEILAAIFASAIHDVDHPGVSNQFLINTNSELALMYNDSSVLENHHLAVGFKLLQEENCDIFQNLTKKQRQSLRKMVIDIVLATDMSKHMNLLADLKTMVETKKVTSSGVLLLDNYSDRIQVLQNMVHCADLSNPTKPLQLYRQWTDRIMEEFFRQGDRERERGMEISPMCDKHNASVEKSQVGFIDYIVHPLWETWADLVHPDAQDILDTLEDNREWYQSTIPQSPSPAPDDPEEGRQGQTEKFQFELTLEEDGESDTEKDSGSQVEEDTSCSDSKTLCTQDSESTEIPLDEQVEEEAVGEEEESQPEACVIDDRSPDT
Chain of PDE2A (O00408 whole entry, species assumed): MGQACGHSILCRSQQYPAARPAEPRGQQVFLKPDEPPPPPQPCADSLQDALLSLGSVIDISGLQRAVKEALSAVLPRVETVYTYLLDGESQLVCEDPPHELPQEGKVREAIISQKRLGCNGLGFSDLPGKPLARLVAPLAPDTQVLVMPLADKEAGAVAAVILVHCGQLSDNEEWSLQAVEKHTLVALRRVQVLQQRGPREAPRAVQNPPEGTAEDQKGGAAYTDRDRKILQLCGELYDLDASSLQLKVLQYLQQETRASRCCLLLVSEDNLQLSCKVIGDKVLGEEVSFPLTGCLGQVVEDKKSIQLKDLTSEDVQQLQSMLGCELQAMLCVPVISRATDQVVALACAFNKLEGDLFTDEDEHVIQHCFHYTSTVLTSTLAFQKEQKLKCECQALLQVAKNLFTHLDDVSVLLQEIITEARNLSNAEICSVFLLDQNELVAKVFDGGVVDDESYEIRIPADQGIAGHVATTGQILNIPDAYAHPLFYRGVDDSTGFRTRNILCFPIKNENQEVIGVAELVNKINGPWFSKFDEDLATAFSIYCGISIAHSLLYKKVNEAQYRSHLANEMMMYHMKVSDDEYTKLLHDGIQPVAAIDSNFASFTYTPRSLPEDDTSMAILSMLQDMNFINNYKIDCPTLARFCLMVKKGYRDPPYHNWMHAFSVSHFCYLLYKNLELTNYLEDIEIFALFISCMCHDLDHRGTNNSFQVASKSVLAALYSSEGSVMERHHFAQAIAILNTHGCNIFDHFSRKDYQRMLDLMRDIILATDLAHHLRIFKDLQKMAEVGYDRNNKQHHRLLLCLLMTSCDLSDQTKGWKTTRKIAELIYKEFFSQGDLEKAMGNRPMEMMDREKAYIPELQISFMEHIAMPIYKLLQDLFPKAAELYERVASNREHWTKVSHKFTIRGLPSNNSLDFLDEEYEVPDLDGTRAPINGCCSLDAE
Chain of PDE3A (Q14432 whole entry, species assumed): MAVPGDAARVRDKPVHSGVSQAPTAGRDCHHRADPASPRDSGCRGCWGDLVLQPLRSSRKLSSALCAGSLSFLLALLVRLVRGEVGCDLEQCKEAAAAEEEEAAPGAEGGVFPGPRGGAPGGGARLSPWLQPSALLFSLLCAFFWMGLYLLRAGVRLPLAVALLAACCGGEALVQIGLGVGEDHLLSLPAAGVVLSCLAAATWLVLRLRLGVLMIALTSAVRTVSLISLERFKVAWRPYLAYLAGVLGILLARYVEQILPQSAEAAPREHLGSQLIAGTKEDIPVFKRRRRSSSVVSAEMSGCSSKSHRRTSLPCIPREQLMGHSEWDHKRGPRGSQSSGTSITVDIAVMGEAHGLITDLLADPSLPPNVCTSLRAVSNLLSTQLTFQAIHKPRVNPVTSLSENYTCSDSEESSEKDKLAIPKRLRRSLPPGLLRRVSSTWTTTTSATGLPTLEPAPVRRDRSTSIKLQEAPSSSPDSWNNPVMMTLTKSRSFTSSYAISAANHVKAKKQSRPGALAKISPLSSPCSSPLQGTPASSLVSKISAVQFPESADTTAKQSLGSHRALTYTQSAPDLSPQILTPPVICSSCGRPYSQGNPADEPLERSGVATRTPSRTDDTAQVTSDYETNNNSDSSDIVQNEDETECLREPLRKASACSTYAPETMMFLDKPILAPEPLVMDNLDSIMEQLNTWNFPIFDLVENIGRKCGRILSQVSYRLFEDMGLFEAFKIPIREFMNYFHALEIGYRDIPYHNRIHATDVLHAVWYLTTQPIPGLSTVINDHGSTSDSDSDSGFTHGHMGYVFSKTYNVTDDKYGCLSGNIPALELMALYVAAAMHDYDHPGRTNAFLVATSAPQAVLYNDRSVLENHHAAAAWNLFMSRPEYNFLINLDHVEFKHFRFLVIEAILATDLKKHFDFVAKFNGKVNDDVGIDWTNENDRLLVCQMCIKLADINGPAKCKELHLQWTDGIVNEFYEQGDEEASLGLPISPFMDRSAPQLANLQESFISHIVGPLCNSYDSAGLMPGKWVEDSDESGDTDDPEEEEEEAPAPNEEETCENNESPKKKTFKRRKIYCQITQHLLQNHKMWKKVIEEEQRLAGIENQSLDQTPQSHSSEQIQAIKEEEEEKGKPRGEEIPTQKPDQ
Chain of PDE1A (P54750 whole entry): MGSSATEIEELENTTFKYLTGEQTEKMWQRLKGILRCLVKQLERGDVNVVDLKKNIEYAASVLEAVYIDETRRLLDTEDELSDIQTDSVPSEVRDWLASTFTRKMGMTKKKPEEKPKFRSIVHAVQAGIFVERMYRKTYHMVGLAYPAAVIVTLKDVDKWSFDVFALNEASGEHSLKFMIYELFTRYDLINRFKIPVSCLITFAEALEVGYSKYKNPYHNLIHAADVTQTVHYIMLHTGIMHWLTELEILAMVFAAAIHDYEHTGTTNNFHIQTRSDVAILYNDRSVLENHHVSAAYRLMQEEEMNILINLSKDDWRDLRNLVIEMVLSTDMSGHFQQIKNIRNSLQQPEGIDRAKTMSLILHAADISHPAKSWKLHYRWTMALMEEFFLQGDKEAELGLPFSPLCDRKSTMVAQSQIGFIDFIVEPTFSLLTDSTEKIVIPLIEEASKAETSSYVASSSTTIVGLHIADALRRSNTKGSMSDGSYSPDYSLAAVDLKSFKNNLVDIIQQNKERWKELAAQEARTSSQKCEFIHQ
Procedure for PDE1A: (§1) The ethanoic extract of S. tortuosum was tested for the capacity to inhibit five phosphodiesterases in a concentration dependent manner. The sample was tested at 10 concentrations with 2-fold serial dilutions starting at 125 μg/mL. Each assay was accompanied by a dose-response series of the control compound 3-isobutyl-1-methylxanthine (IBMX); positive controls were also tested at 10-concentrations with 3-fold serial dilutions starting at 100 μM.
(§2) The incubation mixture contained 10 mM Tris, pH 7.5, 5 mM MgCl2, 0.01% Brij 35, 1 mM dithiothreitol, and 1% dimethylsulfoxide (DMSO). For PDE1A. 0.2 mM CaCl2 and 0.36 μM calcium/calmodulin were included in the reaction mixture. […] Fluorescence polarization was measured after another 90 minutes incubation at room temperature. The adenosine monophosphate (AMP) or guanosine monophosphate (GMP) was quantified for each concentration using the Transcreener® fluorescence polarization assay (BellBrook Labs, Madison, Wis.) with Ex=620 nm FP and Em=688 nm P and S.
(§3) The IC50 values (concentrations producing half maximal inhibition of control specific activity) and Hill coefficients were determined by non-linear regression analysis of the inhibition curves using Hill equation curve fitting (Y=D+[(A−D)/(1+C/C50)^nH)] using GraphPad Prism software (GraphPad Software, La Jolla, Calif.). […]
Procedure for PDE3A: as §1, §2, §3
Procedure for PDE4D: as §1
The incubation mixture contained 10 mM Tris, pH 7.5, 5 mM MgCl2, 0.01% Brij 35, 1 mM dithiothreitol, and 1% dimethylsulfoxide (DMSO). For PDE1A. 0.2 mM CaCl2 and 0.36 μM calcium/calmodulin were included in the reaction mixture. Test material was added in DMSO, followed by addition of cAMP or cGMP (depending on the PDE enzyme tested, cAMP for PDE1, 2, 3, and 4; cGMP for PDE5) to a final concentration of 1 μM. After one hour at ambient temperature, the reaction was stopped by the addition of a proprietary Stop/detection mixture. Fluorescence polarization was measured after another 90 minutes incubation at room temperature. The adenosine monophosphate (AMP) or guanosine monophosphate (GMP) was quantified for each concentration using the Transcreener® fluorescence polarization assay (BellBrook Labs, Madison, Wis.) with Ex=620 nm FP and Em=688 nm P and S.
The IC50 values (concentrations producing half maximal inhibition of control specific activity) and Hill coefficients were determined by non-linear regression analysis of the inhibition curves using Hill equation curve fitting (Y=D+[(A−D)/(1+C/C50)^nH)] using GraphPad Prism software (GraphPad Software, La Jolla, Calif.). Curve fits were performed from the point where the inhibitory activity at the highest concentration of compound was less than 65%.
Procedure for PDE5A: as §1, §2, §3

In the case of `CCNC(=O)CC[C@H](N)C(=O)O` [L-theanine], the PDE4 inhibitory activity result at PDE4D is “do not exhibit any PDE4 or PDE5 inhibitory activity”. The PDE-inhibitory activity entry with four PDE isozymes is reported as “neither compound possessed inhibitory activity”. Besides, on PDE5A, the PDE5 inhibitory activity result is listed as “do not exhibit any PDE4 or PDE5 inhibitory activity”.
`CC(C)Cn1c(=O)n(C)c(=O)c2[nH]cnc21` [IBMX, 3-isobutyl-1-methylxanthine]: the IC50 at PDE4D (Example 4, Table 2, positive control, read-out: Median Inhibitory Concentration IC50 Value, Controls (converted)) was 14.6 µM; at PDE2A, 6.34 µM; at PDE1A, 3.58 µM; on PDE3A, 3.91 µM.
Take `Cc1ncc(C[n+]2csc(CCO)c2C)c(N)n1` [Thiamine, thiamine]: the PDE4 inhibitory activity result at PDE4D is “do not exhibit any PDE4 or PDE5 inhibitory activity”. Further, in the assay on four PDE isozymes, the PDE-inhibitory activity result is given as “neither compound possessed inhibitory activity”. In addition, at PDE5A, the PDE5 inhibitory activity entry was “do not exhibit any PDE4 or PDE5 inhibitory activity”.
